{"source": "paper PMC10916551", "about": "“NNMT/1‐MNA Promote Cell‐Cycle Progression of Breast Cancer by Targeting UBC12/Cullin‐1‐Mediated Degradation of P27 Proteins” (Advanced Science, 2023)", "target": "T1, UBC12 (Homo sapiens, UniProt P61081)", "T1 construct": "gene UBE2M; amine-coupled to CM5 chip", "T1 sequence (P61081 1-183)": "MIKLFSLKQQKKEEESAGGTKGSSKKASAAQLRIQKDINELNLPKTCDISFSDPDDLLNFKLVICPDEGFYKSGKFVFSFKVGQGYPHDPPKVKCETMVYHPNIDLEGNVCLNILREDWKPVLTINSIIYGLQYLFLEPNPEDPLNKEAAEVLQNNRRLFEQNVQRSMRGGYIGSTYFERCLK", "test": "SPR (Biacore T200), UBC12 immobilised on CM5 chip", "assay_type": "binding", "data": [{"compound": "C[n+]1cccc(C(N)=O)c1", "note": "[1-MNA]", "values": [{"measurement": "Kd", "result": 168, "unit": "nM"}]}]}
